Laboratory results as given in patent US20030065035A1, “Novel stilbene derivative crystal and method for producing the same” (AJINOMOTO CO. INC, priority 2000, published 2003).

Experiments:
[1] = Water adsorption isotherm (water adsorption level, BELSORP-18 analyzer); format: physicochemical; details: constant temperature of 25° C.; crystal dried overnight in vacuum at 60° C.; results in FIGS. 3 and 4; hydrochloride
Method: Preparation of Water Adsorption Isotherm (Water Adsorption Constant Temperature Line):
After the Type IV crystal recovered above was dried overnight in vacuum at 60° C., the water adsorption level of the crystal was measured at a constant temperature of 25° C. by a fully automatic water adsorption analyzer (BELSORP-18: Nippon Bell K.K.) (see Mitsuiki et al., J. Agric. Food Chem., vol.46, No. 9, pages 3528-3534 (1998)).
The water adsorption level of the Type I crystal was also measured in the same manner as above.

[2] = X ray powder diffraction pattern of the crystal under humidity (crystal structure stability); format: physicochemical; details: relative humidity of 80% or less

Row | SMILES | water (water vapor) adsorption level versus relative humidity [1] | change of X ray powder diffraction pattern / crystal structure [2]
1 | COc1ccc(/C=C\c2cc(OC)c(OC)c(OC)c2)cc1NC(=O)[C@@H](N)CO.Cl [Type I crystal, (Z)-N-[2-methoxy-5-[2-(3,4,5-trimethoxyphenyl)vinyl]phenyl]-L-serinamide hydrochloride, reference compound] | adsorbed water in a degree roughly proportional to relative humidity | –
2 | COc1ccc(/C=C\c2cc(OC)c(OC)c(OC)c2)cc1NC(=O)[C@@H](N)CO.Cl [Type IV crystal, (Z)-N-[2-methoxy-5-[2-(3,4,5-trimethoxyphenyl)vinyl]phenyl]-L-serinamide hydrochloride] | adsorbed much less water up to around a relative humidity of 80% | did not change
